# Columns and labels:
# sang humain [1] = assay: Diluted thrombin time on plasma of blood put in contact with the products; type: biochemical; details: summary
# Protocol: (§1) • le sang humain était du sang de sujets normaux, prélevé le jour de l'essai, en flacon siliconé, et sur citrate à 9 %, dans le rapport du 1/20; • les produits (microémulsions ou témoin) mis en présence de ce sang, en proportions variables, ont permis, après 10 minutes d'incubation à la température du laboratoire, de pratiquer un thromboélastogramme sur sang total, afin de mettre en évidence une action éventuelle sur la coagulation globale selon le mode opératoire décrit par C. RABY dans Biologie des Hémorragies et des Thromboses 1 vol., Masson et Cie, Edit. Paris 1966, p. 187; • un temps de thrombine diluée a été effectué sur les plasmas des sangs ayant été en contact avec les microémulsions selon l'invention pendant 30 minutes à la température du laboratoire selon le mode opératoire décrit par C. RABY à la page 119 de l'ouvrage cité ci-dessus.
# Dans la détermination du temps de thrombine on a utilisé de l'eau physiologique comme témoin.
# [2] = Cloud point of the surfactant; type: physicochemical
# sang humain [3] = assay: In vitro haemocompatibility: direct action on blood, overall observation
# Protocol: On a recherché si les microémulsions selon l'invention avaient une action sur le sang humain en effectuant un thromboélastogramme, en mesurant le temps de thrombine diluée et en évaluant l'hémolyse.
# as §1
# (§2) Cette émulsion, mise en présence de quatre échantillons de sang humain, à raison de 0,1 ml pour 0,9 ml de sang, a permis d'effectuer les essais définis ci-dessus.
# sang humain [4] = assay: Thromboelastogram on whole blood; details: after recalcification, emulsion with ethanol, 10 minutes incubation
# Protocol: as §1, §2
# sang humain [5] = assay: Haemolysis evaluated on plasma after centrifugation; type: cell-based; details: plasma after centrifugation of blood at 2 000 g for 15 minutes
# Protocol: as §1
# L'hémolyse a été évaluée sur ces plasmas après centrifugation du sang à 2 000 g pendant 15 minutes.
# [6] = Solubility and dispersion of the surfactant in physiological saline; type: physicochemical
# Protocol: A des fins de comparaison, on a également utilisé les microémulsions ci-dessus d'une part en présence d'éthanol et d'autre part en l'absence d'éthanol.
# En présence d'éthanol (VN), une solution limpide a été obtenue avec l'agent tensio-actif. Celle-ci, ajoutée dans les proportions de 0,2 ml à 1,8 ml d'eau physiologique, a donné, après agitation, une émulsion laiteuse, instable, s'éclaircissant en 15 minutes environ, tant à la température du laboratoire qu'à 37 °C.
# [7] = emulsion with ethanol, 0,1 ml for 0,9 ml blood
# [8] = ethanol solution, 0,2 ml in 1,8 ml eau physiologique, laboratory temperature and 37 °C
smiles,measurement,setting,value
OCCOCCOCCOCCOCCOCCOCC(F)(F)C(F)(F)C(F)(F)C(F)(F)C(F)(F)C(F)(F)C(F)(F)F [C7F15CH2(OC2H4)6OH],activité semblable à la thrombine,sang humain [1],ne produisent pas
same,point de trouble,[2],< 0 °C
same,action directe sur du sang normal,sang humain [3]; [7],Aucune action directe
same,fluidité,sang humain [3]; [7],n'a pas été altérée
same,"effet in vitro sur le sang humain, non coagulé",sang humain [3]; summary,sans effet
same,amplitude « amx »,sang humain [4],diminution
same,constante « r »,sang humain [4],léger raccourcissement
same,« k,sang humain [4],allongement
same,hémolyse,sang humain [5],aucune trace
same,hémolyse,sang humain [5]; listed as agent tensio-actif seul,absence
same,soluble dans les solutés physiologiques,[6],n'est pas soluble
same,stabilité de l'émulsion,[6]; [8],instable
same,temps d'éclaircissement de l'émulsion,[6]; [8],~15 min
